This note sets out measurements from ChEMBL document CHEMBL1126757, “Benzoquinazoline inhibitors of thymidylate synthase: enzyme inhibitory activity and cytotoxicity of some 3-amino- and 3-methylbenzo[f]quinazolin-1(2H)-ones” (J Med Chem, 1993).

For assay [1], the target named is T1, Thymidylate synthase (Escherichia coli, UniProt C3SWJ7). As to the kind of experiment: Inhibition against thymidylate synthase (TS) in Escherichia coli. The note with it: read-out: I50.
For a further assay, the system named is SW480. In words: cells. The note with it: Homo sapiens.
Assay [2] deals with T2, Thymidylate synthase (Homo sapiens, UniProt P04818).
Target sequence in this assay (P04818 whole entry): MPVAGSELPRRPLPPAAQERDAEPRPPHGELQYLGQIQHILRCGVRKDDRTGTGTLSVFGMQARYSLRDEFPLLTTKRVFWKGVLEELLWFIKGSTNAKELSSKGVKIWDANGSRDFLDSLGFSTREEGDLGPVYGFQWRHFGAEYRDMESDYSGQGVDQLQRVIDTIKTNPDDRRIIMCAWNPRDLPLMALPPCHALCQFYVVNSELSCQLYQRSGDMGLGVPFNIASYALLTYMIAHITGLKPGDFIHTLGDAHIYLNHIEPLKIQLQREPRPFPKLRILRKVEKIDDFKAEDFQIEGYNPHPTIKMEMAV
For assay [3], the target named is T1, Thymidylate synthase. In words: Tested against thymidylate synthase (TS) in E. coli. The note with it: read-out: I50.
For assay [4], the target named is T2, Thymidylate synthase. In words: Tested for percent inhibition against thymidylate synthase (TS) in human at 63 uM.
Target sequence in this assay (P04818 2-313 limits assumed): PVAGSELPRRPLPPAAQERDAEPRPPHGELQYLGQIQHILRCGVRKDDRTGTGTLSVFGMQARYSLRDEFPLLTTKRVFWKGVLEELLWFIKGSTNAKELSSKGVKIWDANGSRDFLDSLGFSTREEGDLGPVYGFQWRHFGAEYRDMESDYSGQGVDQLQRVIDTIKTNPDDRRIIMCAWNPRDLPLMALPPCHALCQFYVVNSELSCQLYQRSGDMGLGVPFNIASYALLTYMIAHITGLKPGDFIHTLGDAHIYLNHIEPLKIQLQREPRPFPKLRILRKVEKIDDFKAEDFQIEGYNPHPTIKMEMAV
Assay [5] addresses Thymidylate synthase (Escherichia coli) (UniProt C3SWJ7). As to the kind of experiment: Tested for percent inhibition against thymidylate synthase (TS) in Escherichia coli at 63.2 uM.
Target sequence in this assay (C3SWJ7 1-264): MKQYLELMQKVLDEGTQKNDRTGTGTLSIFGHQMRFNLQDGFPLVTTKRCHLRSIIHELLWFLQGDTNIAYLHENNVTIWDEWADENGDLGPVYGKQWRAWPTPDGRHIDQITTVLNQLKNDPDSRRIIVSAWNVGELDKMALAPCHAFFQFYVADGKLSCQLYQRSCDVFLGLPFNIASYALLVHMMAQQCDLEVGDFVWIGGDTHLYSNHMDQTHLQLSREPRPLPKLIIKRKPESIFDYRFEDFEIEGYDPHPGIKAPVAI
Assay [6] has as its system Thymidylate synthase (Candida albicans). As to the kind of experiment: Tested for percent inhibition against thymidylate synthase (TS) in Candida albicans at 63.2 uM.
The target of assay [7] is T2, Thymidylate synthase. As to the kind of experiment: Tested for percent inhibition against thymidylate synthase (TS) in human at 96.8 uM.
Target sequence in this assay (P04818 whole entry, looked up): as the sequence (P04818 whole entry) above
In assay [8] the test system is Thymidylate synthase (Candida albicans). As to the kind of experiment: Tested for percent inhibition against thymidylate synthase (TS) in Candida albicans at 100 uM.
For assay [9] the test system is unchanged. As to the kind of experiment: Tested for percent inhibition against thymidylate synthase (TS) in Candida albicans at […].
In assay [10] the target is T2, Thymidylate synthase. In words: Tested for percent inhibition against thymidylate synthase (TS) in human at 74.8 uM.
Target sequence in this assay (P04818 whole entry, looked up): as the sequence (P04818 whole entry) above
The target in assay [11] is Thymidylate synthase (Escherichia coli) (UniProt C3SWJ7). As to the kind of experiment: Tested for percent inhibition against thymidylate synthase (TS) in Escherichia coli at 18.8 uM.
For assay [12] the target is unchanged. In words: Tested for percent inhibition against thymidylate synthase (TS) in Escherichia coli at 16.8 uM.
The target of assay [13] is T2, Thymidylate synthase. In words: Tested for percent inhibition against thymidylate synthase (TS) in human at 29.2 uM.
Target sequence in this assay (P04818 whole entry, looked up): as the sequence (P04818 whole entry) above
Assay [14] concerns Thymidylate synthase (Candida albicans). As to the kind of experiment: Tested for percent inhibition against thymidylate synthase (TS) in Candida albicans at 28.8 uM.
The target in assay [15] is Thymidylate synthase (Escherichia coli) (UniProt C3SWJ7). As to the kind of experiment: Tested for percent inhibition against thymidylate synthase (TS) in Escherichia coli at 29.2 uM.
The target of assay [16] is T1, Thymidylate synthase. As to the kind of experiment: Tested for inhibition against thymidylate synthase (TS) in Escherichia coli.
Assay [17] has as its target Thymidylate synthase (Escherichia coli) (UniProt C3SWJ7). In words: Tested for percent inhibition against thymidylate synthase (TS) in Escherichia coli at 764.0 uM.
Target sequence in this assay (C3SWJ7 1-264): as the sequence (C3SWJ7 1-264) above
In assay [18] the target is T2, Thymidylate synthase. In words: Tested for percent inhibition against thymidylate synthase (TS) in human at 19 uM.
Target sequence in this assay (P04818 whole entry, looked up): as the sequence (P04818 whole entry) above
In assay [19] the test system is Thymidylate synthase (Bos taurus). As to the kind of experiment: Tested against thymidylate synthase (TS) in calf thymus at 765 uM.
The target in assay [20] is T2, Thymidylate synthase. As to the kind of experiment: Tested for inhibition against thymidylate synthase (TS) in human.
Target sequence in this assay (P04818 whole entry): as above

T1 sequence (C3SWJ7 whole entry): as the sequence (C3SWJ7 1-264) above

On to `Nc1nc(O)c2c(ccc3ccc(I)cc32)n1`, for which the IC50 at Thymidylate synthase [1] was found to be 0.323 µM; with SW480, 5 µM; at Thymidylate synthase [2], 0.022 µM.
For `Nc1nc2ccc3cc([N+](=O)[O-])c(Br)cc3c2c(=O)[nH]1` the same measures were 31 µM, 2.5 µM and 3.12 µM.
For `CCc1ccc2ccc3nc(N)nc(O)c3c2c1`, in that order: 7.7 µM, 20 µM and 0.49 µM.
For `Cc1ccc2ccc3nc(N)nc(O)c3c2c1`, in that order: 1.47 µM, 30 µM and 0.178 µM.
In the case of `CCSc1ccc2ccc3nc(N)nc(O)c3c2c1`, the IC50 on Thymidylate synthase [1] was found to be 4.3 µM; at Thymidylate synthase [2], 3.28 µM.
`Nc1nc(O)c2c(ccc3c(N)cccc32)n1`: the IC50 was 39 µM at Thymidylate synthase [1], more than 100 µM in the assay on SW480 and 15.2 µM against Thymidylate synthase [2].
As for `Cc1nc(O)c2c(ccc3ccccc32)n1`, the IC50 on Thymidylate synthase [3] is 30.1 µM; in the assay with SW480, more than 100 µM.
Turning to `Nc1nc2ccc3c(N)c(Br)ccc3c2c(=O)[nH]1`, the IC50 turned out to be 20 µM in the assay with SW480 and 16.8 µM at Thymidylate synthase [2].
In general, inhibition refers to the percentage by which the read-out fell short of the control. A high value points to strong suppression. For the compound `Nc1nc(O)c2c(ccc3c([N+](=O)[O-])cccc32)n1`, the inhibition against Thymidylate synthase [4] came out at 23%; in assay [5], 29%; in assay [6] it was 0%.
Turning to `Nc1nc2ccc3cc(Cl)c(Cl)cc3c2c(=O)[nH]1`, the IC50 at Thymidylate synthase [1] was 5.4 µM; in the assay with SW480, 20 µM; against Thymidylate synthase [2] it was 0.71 µM.
For `Nc1nc(O)c2c(ccc3cc(N)c(Br)cc32)n1` the same measures were 2.8 µM, 15 µM and 0.34 µM.
`Nc1nc(O)c2c(n1)CCc1c(Cl)cccc1-2`: the values for the inhibition (against Thymidylate synthase [7]; in assay [8]) were 38% and 23.1%, respectively. Also, the IC50 at Thymidylate synthase [1] is 369 µM.
In the case of `Nc1nc2ccc3ccc(O)cc3c2c(=O)[nH]1`, the IC50 was 1.84 µM at Thymidylate synthase [1], 40 µM with SW480 and 0.48 µM against Thymidylate synthase [2].
For `Nc1nc(O)c2c(cc(CO)c3ccccc32)n1`, in that order: 102 µM, more than 100 µM and 8.6 µM.
For `Nc1nc2ccc3ccc(Cl)cc3c2c(=O)[nH]1` the same measures were 0.52 µM, 3 µM and 0.025 µM.
Turning to `Nc1nc(O)c2c(ccc3cc(Br)ccc32)n1`, the inhibition in assay [9] came out at 32.3%; on Thymidylate synthase [10], 37%; in assay [11], 32%.
In the case of `Nc1nc(O)c2c(ccc3c(Br)cccc32)n1`, the inhibition in [12] was found to be 41%. The IC50 in the assay with SW480 turned out to be 10 µM.
On to `Nc1nc(O)c2c(ccc3ccc(Br)c(N)c32)n1`, for which the IC50 at Thymidylate synthase [1] amounted to 0.64 µM; with SW480, 30 µM; at Thymidylate synthase [2] it was 0.36 µM.
Consider `CCOc1cc2c(ccc3nc(N)nc(O)c32)cc1Br`, for which the figures for the inhibition (against Thymidylate synthase [13]; in assay [14]; in assay [15]) were 34%, 15.9% and 14%, respectively.
Take `CC1(C)Cc2nc(N)nc(O)c2-c2ccccc21`: the results for the IC50 on Thymidylate synthase [1] and against Thymidylate synthase [2] were 49.6 µM and 43.9 µM, respectively.
`Cc1cc(C)c2c(c1)-c1c(nc(N)[nH]c1=O)CC2`: the IC50 in the assay with SW480 was more than 100 µM; on Thymidylate synthase [16] it was 13 µM.
As for `Nc1ccc2ccc3nc(N)nc(O)c3c2c1`, the IC50 at Thymidylate synthase [1] was 0.6 µM; in the assay with SW480, 80 µM; on Thymidylate synthase [2], 0.63 µM.
For `Nc1nc(O)c2c(ccc3ccc(Br)cc32)n1` the same measures were 0.267 µM, 10 µM and 0.022 µM.
As for `Oc1nc(NCc2ccccc2)nc2ccc3c(Br)cccc3c12`, the IC50 at Thymidylate synthase [1] is 0.63 µM; in the assay on SW480 it was 60 µM; on Thymidylate synthase [2], 0.52 µM.
Consider `Nc1ccc2c(c1)-c1c(nc(N)[nH]c1=O)CC2`, for which the IC50 on Thymidylate synthase [1] was 16.9 µM; in the assay on SW480 it was more than 100 µM; against Thymidylate synthase [2] it was 13.5 µM.
In assay [17], `Nc1nc(O)c2c(ccc3cc(F)cc([N+](=O)[O-])c32)n1` came in with an inhibition of 41%. In the assay with SW480, this compound yielded an IC50 of 50 µM.
In the case of `Cc1cccc2c1ccc1nc(N)nc(O)c12`, the IC50 on Thymidylate synthase [1] came out at 18.1 µM; in the assay with SW480, 35 µM; on Thymidylate synthase [2] it was 7.5 µM.
`CSc1ccc2ccc3nc(N)nc(O)c3c2c1`: the IC50 on Thymidylate synthase [1] came to 1.6 µM; against Thymidylate synthase [2], 0.46 µM.
Take `Nc1cc(N)c2c(ccc3nc(N)nc(O)c32)c1`: the IC50 at Thymidylate synthase [1] is 5.12 µM; with SW480, more than 100 µM; against Thymidylate synthase [2], 7.8 µM.
For the compound `Nc1nc2c(c(=O)[nH]1)-c1cc(O)ccc1CC2`, the figures for the IC50 at Thymidylate synthase [1], in the assay with SW480 and against Thymidylate synthase [2] were 12 µM, more than 100 µM and 8.4 µM, respectively.
Take `Nc1nc2c(c(=O)[nH]1)-c1cccc(F)c1CC2`: the values for the IC50 at Thymidylate synthase [1], in the assay on SW480 and at Thymidylate synthase [2] were 99 µM, more than 100 µM and 83.6 µM, respectively.
For `Nc1ccc2c(ccc3nc(N)nc(O)c32)c1`, the IC50 came out at 100 µM in the assay on SW480 and 7.5 µM at Thymidylate synthase [2].
For `COCc1cc2nc(N)nc(O)c2c2ccccc12` the same measures were 60 µM and 15 µM.
For `Cc1nc2c(c(=O)[nH]1)-c1cccc(Cl)c1CC2` the same measures were more than 100 µM and 193 µM.
Take `Nc1nc(O)c2c(ccc3c([N+](=O)[O-])c(F)ccc32)n1`: the IC50 on Thymidylate synthase [1] came to 403 µM; in the assay with SW480, 30 µM; against Thymidylate synthase [2], 552 µM.
For `C=Cc1ccc2ccc3nc(N)nc(O)c3c2c1` the same measures were 1.1 µM, 6 µM and 0.12 µM.
For `Cc1ccc2c(c1)-c1c(O)nc(N)nc1CC2` the same measures were 5.8 µM, more than 100 µM and 0.72 µM.
For `Nc1nc2ccc3c(I)cccc3c2c(=O)[nH]1`, the IC50 at Thymidylate synthase [1] is 6.3 µM; in the assay on SW480, 10 µM; against Thymidylate synthase [2], 1.31 µM.
For `Nc1nc2ccc3cc(F)ccc3c2c(=O)[nH]1`, in that order: 231 µM, 50 µM and 44 µM.
Turning to `Nc1nc(O)c2c(ccc3c(N)c(F)ccc32)n1`, the IC50 at Thymidylate synthase [1] turned out to be 119 µM; with SW480, 30 µM. On Thymidylate synthase [18], the inhibition came to 29%.
On to `Nc1nc(O)c2c(ccc3cc(F)cc(N)c32)n1`, for which the figures for the IC50 on Thymidylate synthase [1], in the assay on SW480 and at Thymidylate synthase [2] were 47.1 µM, 70 µM and 73.8 µM, respectively.
For `Nc1nc2ccc3ccccc3c2c(=O)[nH]1` the same measures were 7 µM, 52 µM and 1.08 µM.
For `C#Cc1ccc2ccc3nc(N)nc(O)c3c2c1`, in that order: 14 µM, 20 µM and 0.6 µM.
Regarding `Nc1nc(O)c2c(ccc3ccc(Br)c([N+](=O)[O-])c32)n1`, the results for the IC50 in the assay with SW480 and at Thymidylate synthase [2] were 20 µM and 0.23 µM, respectively.
Take `Nc1nc2c(c(=O)[nH]1)-c1ccc3ccccc3c1CC2`: the figures for the IC50 with SW480 and on Thymidylate synthase [16] were 30 µM and 36 µM, respectively.
On to `COc1ccc2c(c1)-c1c(O)nc(N)nc1CC2`, for which the IC50 on Thymidylate synthase [1] is 6 µM; in the assay on SW480, 25 µM; at Thymidylate synthase [2], 3.6 µM.
Compound `COc1cc2c(cc1OC)-c1c(O)nc(N)nc1CC2` gave an inhibition in assay [19] of 25%. Further, the IC50 on Thymidylate synthase [1] was determined as 762 µM.
`Cc1nc(O)c2c(ccc3ccc(F)cc32)n1`: the IC50 at Thymidylate synthase [3] was determined as 29.6 µM; with SW480, 100 µM.
Consider `Nc1nc2ccc3cccc([N+](=O)[O-])c3c2c(=O)[nH]1`, for which the IC50 on Thymidylate synthase [1] is 9.8 µM; with SW480, more than 100 µM; against Thymidylate synthase [2], 2.31 µM.
For `Nc1nc(O)c2c(ccc3ccc(F)cc32)n1`, in that order: 2.4 µM, 10 µM and 0.5 µM.
Turning to `CCOc1ccc2ccc3nc(N)nc(O)c3c2c1`, the IC50 with SW480 came to 20 µM; on Thymidylate synthase [2], 4.2 µM.
Consider `Nc1nc2ccc3c(F)cccc3c2c(=O)[nH]1`, for which the IC50 came out at 208 µM at Thymidylate synthase [1], 30 µM in the assay with SW480 and 25 µM against Thymidylate synthase [2].
`Cc1nc2c(c(=O)[nH]1)-c1cc(Cl)ccc1CC2`: the IC50 on Thymidylate synthase [3] is 18.8 µM; in the assay on SW480, more than 100 µM.
As to `Nc1nc2c(c(=O)[nH]1)-c1cc(Cl)c(Cl)cc1CC2`, the IC50 worked out at 2.96 µM at Thymidylate synthase [20] and 6.7 µM at Thymidylate synthase [1].
`COc1ccc2ccc3nc(N)nc(O)c3c2c1`: the values for the IC50 at Thymidylate synthase [20] (read-out: I50), on Thymidylate synthase [1] and in the assay with SW480 were 1.6 µM, 5 µM and 20 µM, respectively.
Regarding `Cc1nc(O)c2c(n1)CCc1ccc(I)cc1-2`, at Thymidylate synthase [3], the IC50 came to 19.8 µM.
On to `Cc1cc2nc(N)nc(O)c2c2cc(Cl)ccc12`, for which the IC50 stood at 0.17 µM at Thymidylate synthase [1], 2 µM in the assay with SW480 and 0.02 µM on Thymidylate synthase [2].
For `CC1Cc2nc(N)nc(O)c2-c2cc(Cl)ccc21` (stereo not given), the IC50 on Thymidylate synthase [1] amounted to 3.6 µM; against Thymidylate synthase [2], 0.37 µM.
For `Nc1nc2ccc3cc([N+](=O)[O-])cc([N+](=O)[O-])c3c2c(=O)[nH]1`, in that order: 104 µM and 145 µM.
